Publication PMC3142248, “The asthma candidate gene NPSR1 mediates isoform specific downstream signalling” (BMC Pulmonary Medicine, 2011)
No end group written: not given here.

T1: NPSR1-B (Homo sapiens, UniProt Q6W5P4, N107I)
T1 construct: expressed in transfected cells; host or cells: HEK-293, transient transfection with pCMV-NPSR1-B
T1 sequence (Q6W5P4 1-377 isoform Q6W5P4-4 N107I): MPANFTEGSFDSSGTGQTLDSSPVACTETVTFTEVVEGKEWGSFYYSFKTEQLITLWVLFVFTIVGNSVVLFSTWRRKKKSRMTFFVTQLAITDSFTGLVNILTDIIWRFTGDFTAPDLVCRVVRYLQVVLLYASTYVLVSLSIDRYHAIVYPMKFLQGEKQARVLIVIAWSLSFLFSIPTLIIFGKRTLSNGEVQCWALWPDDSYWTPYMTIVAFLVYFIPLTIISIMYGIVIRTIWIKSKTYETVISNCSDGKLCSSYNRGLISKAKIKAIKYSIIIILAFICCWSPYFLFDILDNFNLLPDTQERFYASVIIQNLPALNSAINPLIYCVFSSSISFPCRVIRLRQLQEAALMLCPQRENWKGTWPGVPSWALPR

T2: NPSR1-A (Homo sapiens, UniProt Q6W5P4, N107I)
T2 construct: expressed in transfected cells; host or cells: HEK-293, transient transfection with pCMV-NPSR1-A
T2 sequence (Q6W5P4 1-371 N107I): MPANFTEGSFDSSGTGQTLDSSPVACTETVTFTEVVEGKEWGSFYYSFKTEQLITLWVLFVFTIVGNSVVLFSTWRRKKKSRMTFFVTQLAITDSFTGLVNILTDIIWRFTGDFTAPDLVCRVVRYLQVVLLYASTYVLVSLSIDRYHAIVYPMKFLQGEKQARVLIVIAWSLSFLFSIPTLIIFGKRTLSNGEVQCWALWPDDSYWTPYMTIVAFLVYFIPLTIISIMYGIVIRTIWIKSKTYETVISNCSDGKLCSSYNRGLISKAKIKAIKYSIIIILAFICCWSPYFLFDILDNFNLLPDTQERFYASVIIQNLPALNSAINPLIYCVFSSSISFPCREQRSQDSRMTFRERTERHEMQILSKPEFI


How the values were obtained:
monocytic cell lines = settings: pro-inflammatory stimuli, ref [10]; cited from earlier work
Source text: The increasing number of positive association studies supports the concept that NPSR1 is mechanistically involved in asthma and allergy, and also in other diseases. It is therefore highly important to understand its functions in more detail. […] Furthermore, we have observed that out ...

NPSR1-B [1] = molecular target: T1, NPSR1-B; experiment: NPS concentration-response, mRNA expression by qRT-PCR, HEK-293 NPSR1-B; assay type: cell-based; settings: 0.001-10 μM NPS, 6 h, Hill fit, mean ± SEM
Experimental: (§1) Human embryonic kidney cells (HEK-293) were cultured in MEM+GlutaMAX-1 medium (Gibco/Invitrogen) supplemented with 10% fetal calf serum (FCS) (Biosera), 1% sodium pyruvate, 1% non-essential amino acids and 1% penicillin/streptomycin (Gibco/Invitrogen). Human epithelial lung carcinoma cells (A549) were cultured in F-12/D-MEM medium (1:1; Gibco/Invitrogen) supplemented with 10% FCS, L-glutamine and 1% penicillin/streptomycin. Human neuroblastoma cells (SH-SY5Y) were cultured in MEM + GlutaMAX-1 medium supplemented with 10% FCS and 1% penicillin/streptomycin. All cells were kept at 37°C in a humified 5% CO2 incubator. The cells were transiently transfected (Lipofectamin™2000 Reagent, Invitrogen, Carlsbad, USA) with equal amounts of pCMV-NPSR1-A,- NPSR1-B (construction of the expression vectors has been described earlier) or an empty pCMV vector control in a ratio of 1:2 (DNA:Lipofectamin). 24 h post transfection cells were stimulated with NPS ([…]) (Sigma-Genosys LTD, Haverhill, UK or New England Peptide™, Gardner, MA, USA).
(§2) Total cellular RNA was isolated with the RNAeasy Mini Kit (Qiagen, Hilden, Germany) and reverse transcription was done using the iScript™ cDNA synthesis kit (Bio-Rad Laboratories, Hercules, CA, USA) or SuperScript™ First-Strand Synthesis System (Invitrogen, Carlsbad, USA) according to the manufacturer's protocol. All experiments were performed in biological duplicates or triplicates. qRT-PCR was performed using Fast SYBR® Green technology with hypoxanthine-guanine phosphoribosyl transferase (HPRT) or glyceraldehyde-3-phosphate dehydrogenase (GAPDH) as endogenous controls. Gene-specific primers were designed using Primer3 software (for complete lists of all primer sequences please see Additional file 1, Table S1). The PCR assays were performed in a total volume of 10 μl, containing 2 ul cDNA template, 5 ul Fast SYBR® Green PCR Master Mix (Applied Biosystems, Foster City, CA, USA) and 100 nM of each primer. A 7500 Fast Real-Time PCR system (Applied Biosystems) was used according to manufacturer's instructions. A dissociation stage was added to confirm primer specificity. All assays were carried out in technical duplicates or triplicates. Relative quantification and calculation of the range of confidence was performed with the comparative ΔΔCT method. Results are shown as relative expression compared to NPS stimulated empty vector control cells with error bars illustrating the standard error of the mean (SEM). The levels of total NPSR1 mRNA and isoform specific NPSR1-A and NPSR1-B mRNA were measured with qRT-PCR to control for equal isoform expression levels prior to any experiment on all transiently transfected cells (representative data shown Figure 2b).
(§3) To refine concentration and time dependency transiently NPSR1-A, -B or empty pCMV vector overexpressing cells were treated either with 0.001, 0.01, 0.1, 1 or 10 μM NPS for 6 h (concentration-response) or with 2 μM NPS for 30 min, 1, 2, 4, 6, 12, 24 or 48 h (time-response). To verify the results in other cell types, A549 and SH-SY5Y transiently overexpressing NPSR1-A, -B or an empty pCMV vector were treated with 2 μM NPS for 6 h. mRNA expression was measured with qRT-PCR. Agonist concentration-effect curve data were fitted to the Hill equation using an iterative, least squares method (GraphPad Prism, San Diego, CA, U.S.A), to provide estimate EC50 (the agonist concentration that induces half-maximum effect) and presented as -log10 (pEC50) which is normally distributed.

NPSR1-B [2] = molecular target: T1, NPSR1-B; experiment: cAMP accumulation (EIA), HEK-293 NPSR1-B; assay type: cell-based; settings: 0.001-10 μM NPS, 20 min, 200 μM 3-isobutyl-1-methylxanthine 40 min before, six replicas, mean ± SEM
Experimental: (§4) Human embryonic kidney cells (HEK-293) were cultured in MEM+GlutaMAX-1 medium (Gibco/Invitrogen) supplemented with 10% fetal calf serum (FCS) (Biosera), 1% sodium pyruvate, 1% non-essential amino acids and 1% penicillin/streptomycin (Gibco/Invitrogen). Human epithelial lung carcinoma cells (A549) were cultured in F-12/D-MEM medium (1:1; Gibco/Invitrogen) supplemented with 10% FCS, L-glutamine and 1% penicillin/streptomycin. Human neuroblastoma cells (SH-SY5Y) were cultured in MEM + GlutaMAX-1 medium supplemented with 10% FCS and 1% penicillin/streptomycin. All cells were kept at 37°C in a humified 5% CO2 incubator. The cells were transiently transfected (Lipofectamin™2000 Reagent, Invitrogen, Carlsbad, USA) with equal amounts of pCMV-NPSR1-A,- NPSR1-B (construction of the expression vectors has been described earlier) or an empty pCMV vector control in a ratio of 1:2 (DNA:Lipofectamin). […]
(§5) To assay cAMP accumulation, transiently NPSR1-A or -B overexpressing HEK-293 cells were 24 h after transfection incubated for 40 min with 200 μM 3-isobutyl-1-methylxanthine (Sigma-Aldrich, St. Louis, MO, USA), a nonspecific inhibitor of phosphodiesterases. […] The fluorescence intensity was measured before and after injection of 1 μM NPS using the Fluostar Optima microplate reader (BMG Labtechnologies, Offenburg, Germany).

NPSR1-A [3] = molecular target: T2, NPSR1-A; experiment: NPS concentration-response, mRNA expression by qRT-PCR, HEK-293 NPSR1-A; assay type: cell-based; settings: 0.001-10 μM NPS, 6 h, Hill fit, mean ± SEM
Experimental: as §1, §2, §3

NPSR1-A [4] = molecular target: T2, NPSR1-A; experiment: cAMP accumulation (EIA), HEK-293 NPSR1-A; assay type: cell-based; settings: 0.001-10 μM NPS, 20 min, 200 μM 3-isobutyl-1-methylxanthine 40 min before, six replicas, mean ± SEM
Experimental: as §4, §5

[5] = read-out: pEC50, AREG mRNA (converted)
[6] = read-out: pEC50, CGA mRNA (converted)
[7] = read-out: pEC50, NR4A2 mRNA (converted)
[8] = read-out: pEC50, PCK1 mRNA (converted)

| Molecule | NPSR1 mRNA levels (monocytic cell lines) | EC50 (NPSR1-B [1]; [5]) | EC50 (NPSR1-B [1]; read-out: pEC50, CCL20 mRNA (converted)) | EC50 (NPSR1-B [1]; [6]) | EC50 (NPSR1-B [1]; [7]) | EC50 (NPSR1-B [1]; [8]) | EC50 (NPSR1-B [1]; read-out: pEC50, SERPINB2 mRNA (converted)) | EC50 (NPSR1-B [2]) | EC50 (NPSR1-A [3]; [5]) | EC50 (NPSR1-A [3]; [6]) | EC50 (NPSR1-A [3]; read-out: pEC50, EGR1 mRNA (converted)) | EC50 (NPSR1-A [3]; read-out: pEC50, FOS mRNA (converted)) | EC50 (NPSR1-A [3]; read-out: pEC50, IL8 mRNA (converted)) | EC50 (NPSR1-A [3]; [7]) | EC50 (NPSR1-A [3]; read-out: pEC50, NTS mRNA (converted)) | EC50 (NPSR1-A [3]; [8]) | EC50 (NPSR1-A [4]) |
| --- | --- | --- | --- | --- | --- | --- | --- | --- | --- | --- | --- | --- | --- | --- | --- | --- | --- |
| TNFα | generated elevated NPSR1 mRNA levels | – | – | – | – | – | – | – | – | – | – | – | – | – | – | – | – |
| SFRNGVGTGMKKTSFQRAKS [NPS, neuropeptide S] | – | 170 nM | 100 nM | 100 nM | 83.2 nM | 89.1 nM | 126 nM | 3.89 nM | 234 nM | 45.7 nM | 72.4 nM | 53.7 nM | 44.7 nM | 7.94 nM | 87.1 nM | 162 nM | 4.47 nM |
| IFNγ: pro-inflammatory stimulus (protein, UniProt P01579 24-161, looked up) Interferon gamma: QDPYVKEAENLKKYFNAGHSDVADNGTLFLGILKNWKEESDRKIMQSQIVSFYFKLFKNFKDDQSIQKSVETIKEDMNVKFFNSNKKKRDDFEKLTNYSVTDLNVQRKAIHELIQVMAELSPAAKTGKRKRSQMLFRG | generated elevated NPSR1 mRNA levels | – | – | – | – | – | – | – | – | – | – | – | – | – | – | – | – |
